Drawing on PubChem BioAssay AID2060329 (Molecular Pharmacology Branch, DTP, NCI, 2025), this text covers IC50 and viability, T/C for five compounds.

“And” between values parts separate entries of the source, which are not always exact repeats. Equal entries are not always repeated.

The subject of the assay is MCF7 multi-cell spheroids with HUVEC/MSC, viability. The experiment in a line: Anticancer human tumor MCF7 cell line growth inhibition [IpAb].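 On all read-outs here: spheroids exposed to agents for seven days before readout.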 As to conditions: for viability, T/C: stronger effect = lower value. The method in brief:
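Multi-cell spheroids of 60% tumour cells, 25% HUVEC and 15% MSC in ultra-low-attachment U-bottom wells, treated with agents combined with ipatasertib or abemaciclib. Half-log ranges top out near clinical Cmax, or 10 microM when Cmax is unknown.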

Where [1] appears, read: curve of first compound, second compound 0.01 µM.
[2] abbreviates: curve of first compound, second compound 0.0316 µM.
[3] abbreviates: curve of first compound, second compound 0.1 µM.
Where [4] appears, read: curve of first compound, second compound 0.316 µM.
[5] abbreviates: curve of first compound, second compound 1 µM.
The mark [6] stands for this setting: second compound 0.1 µM, first compound 0.00316 µM.
The mark [7] stands for this setting: second compound 0.1 µM, first compound 0.01 µM.
Setting [8] is: second compound 0.1 µM, first compound 0.0316 µM.
The mark [9] stands for this setting: second compound 0.1 µM, first compound 0.1 µM.
The mark [10] stands for this setting: second compound 0.316 µM, first compound 0.00316 µM.
The mark [11] stands for this setting: second compound 0.316 µM, first compound 0.01 µM.
The mark [12] stands for this setting: second compound 0.316 µM, first compound 0.0316 µM.
The mark [13] stands for this setting: second compound 0.316 µM, first compound 0.1 µM.
Where [14] appears, read: second compound 1 µM, first compound 0.00316 µM.
Setting [15] is: second compound 1 µM, first compound 0.01 µM.
[16] abbreviates: second compound 1 µM, first compound 0.0316 µM.
The mark [17] stands for this setting: second compound 1 µM, first compound 0.1 µM.

By IC50 is commonly meant the concentration at which inhibition is half-maximal. Usually viability, T/C stands for the result in the treated group divided by that in the control group, in per cent. For the compound `CC(=O)c1c(C)c2cnc(Nc3ccc(N4CCNCC4)cn3)nc2n(C2CCCC2)c1=O` + CCN1CCN(Cc2ccc(Nc3ncc(F)c(-c4cc(F)c5nc(C)n(C(C)C)c5c4)n3)nc2)CC1, the IC50 is, setting by setting: under setting [1], more than 300 nM; under setting [2], more than 300 nM; under setting [3], more than 300 nM; under setting [4], more than 300 nM; under setting [5], more than 300 nM. Moreover, the viability, T/C reads like this: (second compound 0.01 µM, first compound 0.000949 µM) 93.2%; (second compound 0.01 µM, first compound 0.003 µM) 99.5%; (second compound 0.01 µM, first compound 0.00949 µM) 103%; (second compound 0.01 µM, first compound 0.03 µM) 104%; (second compound 0.01 µM, first compound 0.0949 µM) 97.4%; (second compound 0.01 µM, first compound 0.3 µM) 93.6%. The viability, T/C reads like this: (second compound 0.0316 µM, first compound 0.000949 µM) 101%; (second compound 0.0316 µM, first compound 0.003 µM) 95.4%; (second compound 0.0316 µM, first compound 0.00949 µM) 90.6%; (second compound 0.0316 µM, first compound 0.03 µM) 93.3%; (second compound 0.0316 µM, first compound 0.0949 µM) 93%; (second compound 0.0316 µM, first compound 0.3 µM) 94.1%. Also, the viability, T/C was 93.9% (second compound 0.1 µM, first compound 0.000949 µM); 104% (second compound 0.1 µM, first compound 0.003 µM); 88.3% (second compound 0.1 µM, first compound 0.00949 µM); 99.3% (second compound 0.1 µM, first compound 0.03 µM); 92.8% (second compound 0.1 µM, first compound 0.0949 µM); 86.7% (second compound 0.1 µM, first compound 0.3 µM). For the same compound, the viability, T/C (second compound 0.316 µM, first compound 0.000949 µM) is 95%; the viability, T/C (second compound 0.316 µM, first compound 0.003 µM) is 90.9%; the viability, T/C (second compound 0.316 µM, first compound 0.00949 µM) is 96.6%; the viability, T/C (second compound 0.316 µM, first compound 0.03 µM) was 92.1%; the viability, T/C (second compound 0.316 µM, first compound 0.0949 µM) was 97%; the viability, T/C (second compound 0.316 µM, first compound 0.3 µM) was 85.5%. Moreover, the viability, T/C (second compound 1 µM, first compound 0.000949 µM) is 82.7%; the viability, T/C (second compound 1 µM, first compound 0.003 µM) is 94.5%; the viability, T/C (second compound 1 µM, first compound 0.00949 µM) is 79.8%; the viability, T/C (second compound 1 µM, first compound 0.03 µM) was 79.8%; the viability, T/C (second compound 1 µM, first compound 0.0949 µM) was 87.1%; the viability, T/C (second compound 1 µM, first compound 0.3 µM) is 92.2%.
With `CC(C)n1nc(-c2ccc3oc(N)nc3c2)c2c(N)ncnc21` + CCN1CCN(Cc2ccc(Nc3ncc(F)c(-c4cc(F)c5nc(C)n(C(C)C)c5c4)n3)nc2)CC1, the IC50 amounted to 10.6 nM under setting [1]; 7.31 nM under setting [2]; 7.34 nM under setting [3]; 14.5 nM under setting [4]; 25.6 nM under setting [5]. Also, the viability, T/C is, setting by setting: (second compound 0.01 µM, first compound 0.000316 µM) 90.9%; (second compound 0.01 µM, first compound 0.001 µM) 103%; (second compound 0.01 µM, first compound 0.00316 µM) 71.1%; (second compound 0.01 µM, first compound 0.01 µM) 55.6%; (second compound 0.01 µM, first compound 0.0316 µM) 21.6%; (second compound 0.01 µM, first compound 0.1 µM) 11.9%. The viability, T/C runs as follows: (second compound 0.0316 µM, first compound 0.000316 µM) 89.3%; (second compound 0.0316 µM, first compound 0.001 µM) 90.2%; (second compound 0.0316 µM, first compound 0.00316 µM) 73.3%; (second compound 0.0316 µM, first compound 0.01 µM) 40.8%; (second compound 0.0316 µM, first compound 0.0316 µM) 21%; (second compound 0.0316 µM, first compound 0.1 µM) 13.8%. Moreover, the viability, T/C by setting is: (second compound 0.1 µM, first compound 0.000316 µM) 95.4%; (second compound 0.1 µM, first compound 0.001 µM) 94%; under setting [6], 69.2%; under setting [7], 44.6%; under setting [8], 19.3%; under setting [9], 16.8%. Further, the viability, T/C reads like this: (second compound 0.316 µM, first compound 0.000316 µM) 116%; (second compound 0.316 µM, first compound 0.001 µM) 101%; under setting [10], 78.2%; under setting [11], 58.8%; under setting [12], 34.4%; under setting [13], 28.7%. Further, the viability, T/C is, setting by setting: (second compound 1 µM, first compound 0.000316 µM) 102%; (second compound 1 µM, first compound 0.001 µM) 83.1%; under setting [14], 80.6%; under setting [15], 55.3%; under setting [16], 47.8%; under setting [17], 41.6%.
As for `Cn1nccc1Nc1nccc(-c2ccn(C(CO)c3ccc(Cl)c(F)c3)c(=O)c2)n1` (centres undefined), the viability, T/C was 96.3% and 104% (compound 0.0316 µM); 96.2% and 111% (compound 0.1 µM); 116% and 119% (compound 0.316 µM); 129% and 118% (compound 1 µM); 128% and 143% (compound 3.16 µM); 88.5% and 102% (compound 10 µM). The IC50 (curve of compound) was more than 10000 nM.
As to `Cn1ncc(Cl)c1-c1cc(C(=O)NC(CN)Cc2cccc(F)c2)sc1Cl` (centres undefined), the viability, T/C is 89.2% and 85.5% (compound 0.0316 µM); 88.8% and 84.4% (compound 0.1 µM); 79.7% and 72.8% (compound 0.316 µM); 57.6% and 50.1% (compound 1 µM); 8.42% and 19.3% (compound 3.16 µM); 0.22% and 0.25% (compound 10 µM). Further, the IC50 (curve of compound) is 1170 nM and 998 nM.
As to `COc1c(OCCCN2CCOCC2)ccc2c3n(c(=NC(=O)c4cnc(N)nc4)nc12)CCN3` + CC(C)NCC(C(=O)N1CCN(c2ncnc3c2C(C)CC3O)CC1)c1ccc(Cl)cc1, the IC50 is, setting by setting: under setting [3], 49.2 nM; under setting [4], 31.7 nM; under setting [5], 14.6 nM; (curve of first compound, second compound 3.16 µM) less than 3.16 nM; (curve of first compound, second compound 10 µM) less than 3.16 nM. Besides, the viability, T/C was 86% under setting [6]; 80.2% under setting [7]; 58.3% under setting [8]; 37% under setting [9]; 9.3% (second compound 0.1 µM, first compound 0.316 µM); 11.8% (second compound 0.1 µM, first compound 1 µM). For the same compound, the viability, T/C is 75.1% under setting [10]; 65.8% under setting [11]; 49.8% under setting [12]; 30.5% under setting [13]; 9.83% (second compound 0.316 µM, first compound 0.316 µM); 12.4% (second compound 0.316 µM, first compound 1 µM). Moreover, the viability, T/C runs as follows: under setting [14], 61.9%; under setting [15], 56.4%; under setting [16], 37.7%; under setting [17], 22%; (second compound 1 µM, first compound 0.316 µM) 10.7%; (second compound 1 µM, first compound 1 µM) 11.2%. In addition, the viability, T/C runs as follows: (second compound 3.16 µM, first compound 0.00316 µM) 45.9%; (second compound 3.16 µM, first compound 0.01 µM) 48.7%; (second compound 3.16 µM, first compound 0.0316 µM) 35.4%; (second compound 3.16 µM, first compound 0.1 µM) 32%; (second compound 3.16 µM, first compound 0.316 µM) 9.39%; (second compound 3.16 µM, first compound 1 µM) 10.6%. The viability, T/C reads like this: (second compound 10 µM, first compound 0.00316 µM) 33.8%; (second compound 10 µM, first compound 0.01 µM) 34.9%; (second compound 10 µM, first compound 0.0316 µM) 37.4%; (second compound 10 µM, first compound 0.1 µM) 21.7%; (second compound 10 µM, first compound 0.316 µM) 6.28%; (second compound 10 µM, first compound 1 µM) 5.07%.
